Measurements from article PMC4871480, “A Miniaturized Screen of a Schistosoma mansoni Serotonergic G Protein-Coupled Receptor Identifies Novel Classes of Parasite-Selective Inhibitors” (PLoS Pathogens, 2016).
“Also recorded” adds a separate entry of the source. Read-outs that look alike come from different tables or passages of the source.

Legend:
[1] = system: S. mansoni schistosomules; test: Schistosomule contractility assay; format: in vivo, Schistosoma mansoni; settings: Schistosoma mansoni, read-out: IC50 (inhibition of 5-HT evoked contractions)
Method: Biomphalaria glabrata (M-line) snails exposed to Schistosoma mansoni miracidia (Strain PR-1) were obtained from BEI Resources (Cat. number NR-21961) and cercaria were shed following exposure to light (1.5 hours). Cercaria were manually transformed into schistosomula by vortexing (3 x 45 seconds, each separated by 3 minutes on ice) and tails were removed by gradient centrifugation (24ml Percoll, 4ml 10X EMEM, 1.5ml penicillin-streptomycin, 1ml of 1M HEPES in 0.85% NaCl, 9.5ml distilled water) at 500g/15min at 4°C. Supernatant containing tails was discarded, and schistosomules were resuspended in Basch media and incubated (37°C, 5% CO2) overnight before conducting mobility assays. For contractility experiments, somules were incubated in 5-HT free Basch media to resolve a basal contractility rate. […] Schistosomules were incubated in 24 well plates (~200 schistosomules / 0.5mL media per well) for 30 minutes (37°C/5% CO2) prior to acquiring videos of schistosome movement (1 minute recordings / well) using a Nikon Coolpix 5700 camera affixed to a Nikon Eclipse TS100 microscope (10x objective). The WrmTrck plugin for ImageJ was used to quantify worm mobility. Briefly, the major axis of each schistosomule body length was extracted from the raw output of WrmTrck and an average length was determined for the duration of the recording. Contractions were quantified by determining the number of episodes during which the worm body length deviated from the average by over 20%. S. mansoni protocols were approved by the Iowa State University Institutional Biosafety Committee.

[2] = system: adult schistosomes; test: Adult schistosome mobility assay; format: in vivo, Schistosoma mansoni; settings: 10μM; for effect on 5-HT evoked increases in worm movement / time to recovery of movement after drug removal, male worms: 5-HT 100μM; for time to recovery of movement after drug removal, male worms: 2 hour exposure; for effect on basal movement of adult worms: worms at rest
Method: Female Swiss Webster mice exposed to Schistosoma mansoni cerceria (Strain PR-1) at 5–7 weeks old were obtained from BEI Resources (Cat. number NR-34792) and sacrificed 6–8 weeks post-infection. Mature S. mansoni were harvested from the mesenteric vasculature by portal perfusion. Briefly, mice were anesthetized in a CO2 chamber and sacrificed by cervical dislocation. Mice were perfused with sodium citrate (25mM) and adult schistosomes were harvested from the mesenteric veins. Schistosomes were washed in RPMI media containing penicillin (1000 units/mL), streptomycin (1000 μg/mL) and 25mM HEPES, then transferred to RPMI media supplemented with 2mM glutamine and 5% heat inactivated FBS. Worms were incubated overnight at 37°C, 5% CO2 before conducting assays. Recordings of adult schistosome movement were captured using a Zeiss Discovery v20 stereomicroscope and a QiCAM 12-bit cooled color CCD camera. Videos were acquired at a rate of four frames per second for one minute. Recordings of female worms were acquired at 7.6x magnification, 30 mm field of view and recordings of male worms were acquired at a 5.1x magnification, 45 mm field of view. Analysis was performed in ImageJ as described previously. Briefly, image (.tiff) stacks of each recording were imported and processed by converting to binary format so that pixel measurements represent area of the worms’ bodies. Mobility was quantified by measuring the difference in pixels resulting from subtracting the value of one frame (n) from those of the next frame in the sequence (n+1). This difference was expressed as a percentage of the pixels in the initial frame (n), providing a measurement of the worms’ movement over a period of 0.25 seconds. This calculation was performed for each frame in the video, and the results were averaged over the length of the recording. Values reported represent the mean (±) standard error of at least three independent experiments. Animal work was carried out with the oversight and approval of the Laboratory Animal Resources facility at the Iowa State University College of Veterinary Medicine.

[3] = molecular target: T1, Hs.5HT7R (Homo sapiens, UniProt P34969); test: GloSensor cAMP assay in HEK293 cells expressing Hs.5HT7R; format: cell-based; settings: for potency (IC50) at Hs.5HT7R: Fig 7 quadrant
T1 construct: host or cells: HEK293 (ATCC CRL-1573.3), transient transfection, pCS2(-) vector
Method: (§1) HEK293 cells (ATCC CRL-1573.3) were cultured in DMEM supplemented with 10% fetal bovine serum (FBS), penicillin (100 units/ml), streptomycin (100 μg/ml), and L-glutamine (290 μg/ml). Cells were transiently transfected (ViaFect, Promega) as per the manufacturer’s protocol at a density of 2x10^6 cells per T-25 cell-culture flask. Cells were transfected with plasmids encoding GloSensor (Promega) and either Sm.5HTR (Smp_126730, GenBank accession number KF444051.1) or Sm.5HTRL (KX150867), bothGPCRs being codon optimized for mammalian expression, or Hs.5HT7a (GenBank accession number NM_000872.4, R&D Systems) subcloned into pCS2(-). Cell culture reagents were from Invitrogen. Epitope tagged constructs were used to verify expression, and untagged constructs used for all luminescence assays.
(§2) For assays performed on adherent cells, HEK-293 cells were transferred one day post transfection to 96 well, solid white plates (Corning, cat # 3917) coated with 0.01% poly-L-lysine (Sigma Aldrich) at a density of 5 x 10^4 cells / well in DMEM supplemented with 1% dialyzed FBS (Gibco). After overnight culture (37°C/5% CO2), media was decanted and replaced with 100μL / well HBSS supplemented with 0.1% BSA, 20mM HEPES (pH 7.4) and GloSensor reagent. Plates were allowed to equilibrate at room temperature for two hours prior to performing luminescence assays (GloMax-Multi Detection System plate reader, Promega). Conditions for individual assays were described as per figure legends. The standard assay to detect changes in cAMP utilized the F22 sensor in media supplemented with IBMX (200μM). Ligands were added at a concentration of 20x per well for experiments (i.e. 5μl of drug solution added to 100μl of cells). […] For the resazurin reduction assay for cellular viability, cells were incubated with resazurin (final concentration, 10μM) and tested ligands with fluorescence measurements (560 nm excitation/590 nm emission) made at 1.5hr intervals.

[4] = system: regenerating planarians; set-up: method as in PMID 24586156; settings: cited from earlier work
[5] = molecular target: T2, Sm.5HTR (Schistosoma mansoni, UniProt G4V5G4); test: cell-based; format: cell-based; settings: for potency (IC50) at Sm.5HTR: Fig 7 quadrant
Method: as §1, §2

[6] = molecular target: T2, Sm.5HTR; test: Antagonist washout (inactivating antagonist) GloSensor assay on suspension cells; format: cell-based
Method: To test putative irreversible antagonists, assays on suspension cells were performed one day post transfection. […] Compounds were added at 10 μM, and after 30 minute incubation at room temperature cells were centrifuged (300 RCF, 5 minutes) and resuspended in fresh media. This wash step was repeated, and cells were resuspended in HBSS supplemented with 0.1% BSA, 20mM HEPES and GloSensor reagent. Cells were gently rotated to prevent aggregation and settling over the course of the two hour equilibration period, after which time they were transferred to 96 well plates at a density of 8 x 10^4 cells / 100μL per well and assays described for adherent cells.

[7] = molecular target: Sm.5HTRL (Schistosoma mansoni, UniProt A0A173FEI8); test: GloSensor cAMP assay in HEK293 cells expressing Sm.5HTRL; format: cell-based; settings: antagonists 10μM, 5-HT EC80 dose
Method: as §1, §2

T1 sequence (P34969 1-445 isoform P34969-2): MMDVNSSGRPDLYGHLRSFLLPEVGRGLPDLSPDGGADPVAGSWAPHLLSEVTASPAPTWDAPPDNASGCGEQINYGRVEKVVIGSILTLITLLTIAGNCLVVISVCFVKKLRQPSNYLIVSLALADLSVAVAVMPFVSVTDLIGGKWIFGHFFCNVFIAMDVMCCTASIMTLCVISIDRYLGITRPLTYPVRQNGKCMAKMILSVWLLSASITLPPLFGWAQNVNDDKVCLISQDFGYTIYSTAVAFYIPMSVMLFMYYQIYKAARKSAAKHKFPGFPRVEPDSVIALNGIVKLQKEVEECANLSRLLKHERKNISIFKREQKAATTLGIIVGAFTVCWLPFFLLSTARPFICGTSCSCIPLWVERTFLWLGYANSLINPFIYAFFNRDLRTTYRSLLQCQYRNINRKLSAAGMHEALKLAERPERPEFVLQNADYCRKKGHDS
T2 sequence (G4V5G4 entry or part of it): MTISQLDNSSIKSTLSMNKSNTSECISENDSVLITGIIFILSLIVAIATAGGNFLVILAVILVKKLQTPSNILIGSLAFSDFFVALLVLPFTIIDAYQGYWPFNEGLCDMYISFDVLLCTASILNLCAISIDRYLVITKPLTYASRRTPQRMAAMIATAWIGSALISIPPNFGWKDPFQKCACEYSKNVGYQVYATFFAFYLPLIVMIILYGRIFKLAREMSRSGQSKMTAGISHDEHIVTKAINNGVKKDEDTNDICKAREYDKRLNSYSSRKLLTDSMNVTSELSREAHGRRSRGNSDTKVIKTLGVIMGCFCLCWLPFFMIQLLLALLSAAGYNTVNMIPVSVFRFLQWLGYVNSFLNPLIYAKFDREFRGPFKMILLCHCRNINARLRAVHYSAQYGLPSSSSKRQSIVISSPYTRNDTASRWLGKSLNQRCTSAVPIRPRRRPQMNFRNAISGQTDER
Chain of Sm.5HTRL (A0A173FEI8 entry or part of it): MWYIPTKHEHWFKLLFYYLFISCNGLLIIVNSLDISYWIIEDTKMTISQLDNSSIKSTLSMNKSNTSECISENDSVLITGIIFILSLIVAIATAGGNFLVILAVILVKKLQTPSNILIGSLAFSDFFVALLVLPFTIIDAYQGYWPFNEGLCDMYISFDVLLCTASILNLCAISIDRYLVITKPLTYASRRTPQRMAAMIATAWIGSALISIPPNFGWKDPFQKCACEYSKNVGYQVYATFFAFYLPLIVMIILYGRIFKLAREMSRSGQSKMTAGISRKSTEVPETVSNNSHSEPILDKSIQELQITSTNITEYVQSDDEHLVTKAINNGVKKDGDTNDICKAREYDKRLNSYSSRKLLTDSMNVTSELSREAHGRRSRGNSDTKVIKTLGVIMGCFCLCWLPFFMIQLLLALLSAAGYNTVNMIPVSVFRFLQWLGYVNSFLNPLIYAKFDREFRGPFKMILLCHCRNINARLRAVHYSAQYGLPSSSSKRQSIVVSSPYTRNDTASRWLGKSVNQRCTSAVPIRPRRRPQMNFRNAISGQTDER

## CC(C)C[C@H]1C(=O)N2CCC[C@H]2[C@]2(O)O[C@](NC(=O)[C@@H]3C=C4c5cccc6[nH]c(Br)c(c56)C[C@H]4N(C)C3)(C(C)C)C(=O)N12 [bromocriptine]
[1]
  IC50: ≤ 1000 nM
[2]
  effect on 5-HT evoked increases in worm movement: inhibited
  time to recovery of movement after drug removal, male worms: 24 h
  effect on basal movement of adult worms: markedly inhibited worm movements at rest
[3]
  potency (IC50) at Hs.5HT7R: supra-μM potency
[4]
  concentration evoking bipolarity, fold less than PZQ: 100 fold
[5]; Fig 5F
  ligand type at Sm.5HTR: Antagonist
[5]
  potency (IC50) at Sm.5HTR: sub-μM potency
[5]; KB (affinity constant, Schild regression), right-shift of 5-HT dose-response
  Kb: 410 nM
[5]; Sm.5HTR over Hs.5HT7R
  selectivity for the parasitic 5-HT receptor: ~ 10 fold
[5]; at higher concentrations (>10μM)
  inhibition of 5-HT evoked cAMP generation: almost complete inhibition
[5]; dose response, Fig 5A
  agonist efficacy at Sm.5HTR: no efficacy
[5]; drug 10μM, preincubation
  acute inhibition of 5-HT (10μM) response at Sm.5HTR: acutely inhibited
[5]; pKB ± S.E.M, Schild regression
  Kb: 407 nM
[6]; 10μM for 30 mins, washout, 5-HT response 1hr later
  inhibition of Sm.5HTR after antagonist wash-out: long-lasting inhibition
[6]; titration, Fig 6E
  potency for Sm.5HTR inhibition after washout: most potent

## COc1cc2c(cc1OC)[C@@H]1Cc3ccc(OC)c(OC)c3CN1CC2 [rotundine]
[7]
  inhibition of 5-HT evoked cAMP generation through Sm.5HTRL: inhibited 5-HT evoked cAMP generation
[1]
  IC50: ≤ 1000 nM
[2]
  effect on 5-HT evoked increases in worm movement: inhibited
  time to recovery of movement after drug removal, male worms: ≤ 3 h
  effect on basal movement of adult worms: markedly inhibited worm movements at rest
[3]
  potency (IC50) at Hs.5HT7R: supra-μM potency
[3]; concentrations up to 50μM
  effect on Hs.5HT7: lacking any effect
[5]
  IC50: 701 ± 207 nM
  selectivity for Sm.5HTR over Hs.5HT7R: clear selectivity for Sm.5HTR; also recorded: clear bias toward Sm.5HTR
  potency (IC50) at Sm.5HTR: sub-μM potency
[5]; IC50 (antagonism of 5-HT evoked cAMP generation), 5-HT at EC80
  IC50: ~700 nM
